The test has as its target human GSK3β (Homo sapiens, UniProt P49841). The test is described as follows: Screening for GSK3 inhibitory activity using a cell-free assay. Type of test: biochemical. To be noted: read-out: IC50 with respect to GSK3. In short, it runs like this:
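Compounds in DMSO were tested against human GSK3β over a three-hour kinase reaction. Radiolabeled phosphate transferred to the peptide was captured on streptavidin plates after EDTA/ATP stop and quantified by scintillation counting. Signal was plotted versus compound concentration.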

Sequence of human GSK3β (P49841 whole entry): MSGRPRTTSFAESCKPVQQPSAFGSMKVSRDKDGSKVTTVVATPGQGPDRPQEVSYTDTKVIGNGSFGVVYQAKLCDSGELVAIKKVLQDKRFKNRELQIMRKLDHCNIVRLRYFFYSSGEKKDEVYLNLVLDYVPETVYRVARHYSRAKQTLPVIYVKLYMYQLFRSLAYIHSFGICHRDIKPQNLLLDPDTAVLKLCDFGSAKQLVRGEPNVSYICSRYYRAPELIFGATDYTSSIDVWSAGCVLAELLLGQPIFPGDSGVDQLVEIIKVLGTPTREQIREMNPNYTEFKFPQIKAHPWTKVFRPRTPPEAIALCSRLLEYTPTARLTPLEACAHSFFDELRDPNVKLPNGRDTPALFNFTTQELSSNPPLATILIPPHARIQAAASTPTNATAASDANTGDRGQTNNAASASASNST

With `Cc1cn(-c2cnc(NCCNc3ccc([N+](=O)[O-])cn3)nc2-c2ccc(Cl)cc2Cl)cn1` [[4-(2,4-dichlorophenyl)-5-(4-methylimidazolyl)pyrimidin-2-yl]{2-[(5-nitro(2-pyridyl))amino]ethyl}amine], the IC50 was not above 1000 nM.
In the case of `CN1CCN(c2cnc(NCCNc3ccc([N+](=O)[O-])cn3)nc2-c2ccc(Cl)cc2Cl)CC1` [[4-(2,4-dichlorophenyl)-5-(4-methylpiperazinyl)pyrimidin-2-yl]{2-[(5-nitro(2-pyridyl))amino]ethyl}amine] it was not above 1000 nM.
Turning to `O=[N+]([O-])c1ccc(NCCNc2ncc(CN3CCOCC3)c(-c3ccc(Cl)cc3Cl)n2)nc1` [[4-(2,4-dichlorophenyl)-5-(morpholin-4-ylmethyl)pyrimidin-2-yl]{2-[(5-nitro(2-pyridyl))amino]ethyl}amine], the IC50 was not above 1000 nM.
In the case of `CCc1cnc(NCCNc2ccc([N+](=O)[O-])cn2)nc1-c1ccc(Cl)cc1Cl` [[4-(2,4-dichlorophenyl)-5-ethylpyrimidin-2-yl]{2-[(5-nitro(2-pyridyl))amino]ethyl}amine], the IC50 was not above 1000 nM.
Take `FC(F)(F)c1ccc(NCCNc2ncc(-c3ncc[nH]3)c(-c3ccc(Cl)cc3Cl)n2)nc1` [[4-(2,4-dichlorophenyl)-5-imidazol-2-ylpyrimidin-2-yl](2-{[5-(trifluoromethyl)(2-pyridyl)]amino}ethyl) amine]: the IC50 was not above 1000 nM.
Take `O=[N+]([O-])c1ccc(NCCNc2ncc(-c3ncc[nH]3)c(-c3ccc(Cl)cc3Cl)n2)nc1` [[4-(2,4-dichlorophenyl)-5-imidazol-2-ylpyrimidin-2-yl]{2-[(5-nitro(2-pyridyl))amino]ethyl}amine]: the IC50 was not above 1000 nM.
Turning to `COc1nc(NCCNc2ncc(-c3ncc[nH]3)c(-c3ccc(Cl)cc3Cl)n2)ccc1[N+](=O)[O-]` [[4-(2,4-dichlorophenyl)-5-imidazol-2-ylpyrimidin-2-yl]{2-[(6-methoxy-5-nitro(2-pyridyl))amino]ethyl}amine], the IC50 is not above 1000 nM.
Consider `O=[N+]([O-])c1ccc(NCCN(CCN2CCOCC2)c2ncc(-n3ccnc3)c(-c3ccc(Cl)cc3Cl)n2)nc1` [[4-(2,4-dichlorophenyl)-5-imidazolylpyrimidin-2-yl](2-morpholin-4-ylethyl){2-[(5-nitro(2-pyridyl))amino]ethyl}amine], for which the IC50 is not above 1000 nM.
For the compound `CN(C)CCN(CCNc1ccc([N+](=O)[O-])cn1)c1ncc(-n2ccnc2)c(-c2ccc(Cl)cc2Cl)n1` [[4-(2,4-dichlorophenyl)-5-imidazolylpyrimidin-2-yl][2-(dimethylamino)ethyl]{2-[(5-nitro(2-pyridyl))amino]ethyl}amine], the IC50 is not above 1000 nM.
With `O=[N+]([O-])c1ccc(NCCN(CCN2CCCC2)c2ncc(-n3ccnc3)c(-c3ccc(Cl)cc3Cl)n2)nc1` [[4-(2,4-dichlorophenyl)-5-imidazolylpyrimidin-2-yl]{2-[(5-nitro(2-pyridyl))amino]ethyl}(2-pyrrolidinylethyl)amine], the IC50 was not above 1000 nM.
For the compound `Clc1ccc(-c2ccnc(NCCNc3ccccn3)n2)c(Cl)c1` [[4-(2,4-dichlorophenyl)pyrimidin-2-yl][2-(2-pyridylamino)ethyl]amine], the IC50 was not above 10000 nM.
`Cc1nc(C)c(-c2ccnc(NCCNc3ccc([N+](=O)[O-])cn3)n2)s1` [[4-(2,4-dimethyl(1,3-thiazol-5-yl))pyrimidin-2-yl]{2-[(5-nitro(2-pyridyl))-amino]ethyl}amine]: the IC50 was not above 10000 nM.
In the case of `O=[N+]([O-])c1ccc(NCCNc2ncc(-c3ncc[nH]3)c(-c3ccc(F)cc3Cl)n2)nc1` [[4-(2-chloro-4-fluorophenyl)-5-imidazol-2-ylpyrimidin-2-yl]{2-[(5-nitro(2-pyridyl))amino]ethyl}amine] it was not above 1000 nM; in that of `COc1ccc(OC)c(CCNc2nccc(-c3ccc(C(=O)NCc4cccc(Br)c4)cc3)n2)c1` [[4-(2-{[2-(2,5-dimethoxyphenyl)ethyl]amino}pyrimidin-4-yl)phenyl]-N-[(3-bromophenyl)methyl]carboxamide], not above 10000 nM; in that of `Cc1cccc(CNC(=O)c2ccc(-c3ccnc(NCc4cccc(Br)c4)n3)cc2)c1` [[4-(2-{[(3-bromophenyl)methyl]amino}pyrimidin-4-yl)phenyl]-N-[(3-methylphenyl)methyl]carboxamide], not above 10000 nM.
Consider `Fc1ccc(-c2ccnc(NCCNc3ccccn3)n2)cc1F` [[4-(3,4-difluorophenyl)pyrimidin-2-yl][2-(2-pyridylamino)-ethyl]amine], for which the IC50 was not above 10000 nM.
Regarding `O=[N+]([O-])c1ccc(NCCNc2ncc(-c3ncc[nH]3)c(-c3ccc(Br)cc3Cl)n2)nc1` [[4-(4-bromo-2-chlorophenyl)-5-imidazol-2-ylpyrimidin-2-yl]{2-[(5-nitro(2-pyridyl))amino]ethyl}amine], the IC50 was not above 1000 nM.
For `O=[N+]([O-])c1ccc(NCCNc2ncc(-c3ncc[nH]3)c(-c3ccc(Cl)cc3)n2)nc1` [[4-(4-chlorophenyl)-5-imidazol-2-ylpyrimidin-2-yl]{2-[(5-nitro(2-pyridyl))amino]ethyl}amine], the IC50 was not above 1000 nM.
Turning to `Cc1cnc(NCCNc2ccccn2)nc1-c1ccc(Cl)cc1` [[4-(4-chlorophenyl)-5-methylpyrimidin-2-yl][2-(2-pyridylamino)ethyl]amine], the IC50 was not above 10000 nM.
`N#Cc1ccc(-c2nc(NCCNc3ccc([N+](=O)[O-])cn3)ncc2C(=O)NCc2ccncc2)cc1` [[4-(4-cyanophenyl)-2-({2-[(5-nitro(2-pyridyl))-amino]ethyl}amino)pyrimidin-5-yl]-N-(4-pyridylmethyl)carboxamide]: the IC50 is not above 1000 nM.
For the compound `CN(C)C(=O)c1cnc(NCCNc2ccc([N+](=O)[O-])cn2)nc1-c1ccc(C#N)cc1` [[4-(4-cyanophenyl)-2-({2-[(5-nitro(2-pyridyl))amino]ethyl}-amino)pyrimidin-5-yl]-N,N-dimethylcarboxamide], the half-maximal inhibitory concentration (IC50) was not above 1000 nM.
In the case of `CNC(=O)c1cnc(NCCNc2ccc([N+](=O)[O-])cn2)nc1-c1ccc(C#N)cc1` [[4-(4-cyanophenyl)-2-({2-[(5-nitro(2-pyridyl))amino]ethyl}amino)-pyrimidin-5-yl]-N-methylcarboxamide] it was not above 1000 nM; in that of `N#Cc1ccc(-c2nc(NCCNc3ccc([N+](=O)[O-])cn3)ncc2C(=O)NCCO)cc1` [[4-(4-cyanophenyl)-2-({2-[(5-nitro(2-pyridyl))amino]ethyl}amino)pyrimidin-5-yl]-N-(2-hydroxyethyl)carboxamide], not above 1000 nM.
In the case of `N#Cc1ccc(-c2nc(NCCNc3ccc([N+](=O)[O-])cn3)ncc2C(=O)NCc2ccccc2)cc1` [[4-(4-cyanophenyl)-2-({2-[(5-nitro(2-pyridyl))amino]ethyl}amino)pyrimidin-5-yl]-N-benzylcarboxamide], the IC50 is not above 1000 nM.
On to `Cc1cn(-c2ccccc2)nc1-c1ccnc(NCCNc2ccccn2)n1` [[4-(4-methyl-1-phenylpyrazol-3-yl)pyrimidin-2-yl][2-(2-pyridyl-amino)ethyl]amine], for which the IC50 was not above 10000 nM.
For the compound `O=[N+]([O-])c1ccc(-c2ccnc(NCCNc3ccccn3)n2)cc1` [[4-(4-nitrophenyl)pyrimidin-2-yl][2-(2-pyridylamino)ethyl]amine], the IC50 was not above 10000 nM.
Turning to `c1ccc(Cc2cnc(NCCNc3ccccn3)nc2-c2ccccc2)cc1` [[4-phenyl-5-benzyl-pyrimidin-2-yl][2-(2-pyridylamino)ethyl]amine], the IC50 was not above 10000 nM.

Source of the values: patent US7425557B2, “Inhibitors of glycogen synthase kinase 3” (Novartis Vaccines and Diagnostics, Inc., priority 1998, dated 2008).
